From patent publication US4511390A, “Aralkylcarbamoyl peptide alcohols” (E. I. Du Pont de Nemours and Company, priority 1983, dated 1985)
Values joined by “and” are separate entries in the source; they are usually repeats but may differ in a detail not shown here. Identical values can stand only once.

Columns and labels:
corn root sections [1] = assay: Nitrate ion uptake by corn root sections measured with radioactive chlorate ion (36ClO3-) as mimic; type: cell-based, Corn (Pioneer Hybrid 3320); conditions: 50 ppm test compound; for activation at 50 ppm: Zea mays, read-out: Ion Uptake (percent increase over control) 36ClO3-
Experimental: (§1) Corn (Pioneer Hybrid 3320), wheat (Arther), sorghum (SC-599-6), barley (CM-721), rice (m101), and cotton (Tamcot SP-37) seeds were disinfected with a 1% sodium hypochlorite solution and placed in 20.3 cm×30.5 cm×5.1 cm Pyrex glass utility trays which were lined with 4 layers of bleached paper towels and irrigated with 150 mL of 0.2 mM CaCl2 solution. The trays were covered with plastic food wrap, perforated to permit air exchange, and placed in a dark growth room which was maintained at 30° and 90% relative humidity. About 48 hours later, another 150 mL of 0.2 mM CaCl2 solution was added to each tray to maintain water sauration of the paper towels.
(§2) Two centimeter root sections were cut 0.5 to 2.5 cm from the tip of 3-day-old etiolated seedling roots. Batches of 20 (for corn and cotton), or 40 (for wheat, barley and rice) root sections were tied in cheesecloth bags, leaving a 20-30 cm length of string to facilitate movement between test solutions. Root tissue was washed at 30±1° by immersing the cheesecloth bags in a well-aerated 0.2 mM K2 HPO4 /KH2 PO4 solution, pH 6.0, for 4 hours. During the last 30 minutes of this washing period, 1 mM potassium nitrate solution was introduced to induce nitrate reductase activity. For uniformity, 100 mL washing solution was used for every bag of root sections (about 300 mg fresh tissue).
Nitrate ion uptake was measured using radioactive chlorate ion (^36 ClO3⊖) as a mimic for nitrate ion (Deane-Drummond et al., Plant Physiol. 70:50-54 (1982)). Uptake was measured by incubating 20 or 40 cheesecloth-bound washed root segments for 30 minutes in 100 mL absorption solution. The absorption solution contained 0.5 mM potassium nitrate, 0.2 mM calcium chloride, 5 mM MES buffer, and 5 mg/L sodium molybdate. This solution was adjusted to pH 6 with potassium hydroxide, and labeled with 10,000 cpm/ml of carrier-free radioactive chlorate ion. Absorption temperatures was maintained at 30±1° in a water bath, and moderate aeration was provided. All test compounds were added to the absorption solution. After the absorption period, the cheesecloth bag containing root sections was rinsed with distilled water for 10 seconds and then immersed in 100 mL of ice-cold, aerated 0.2 mM calcium chloride solution for 20 minutes to remove exchangeable components of absorbed ^36 ClO3⊖. Root sections were then removed from the cheesecloth bags, blotted dry, placed in a preweighed scintillation vial, and weighed to determine fresh tissue weight. One mL water and 10 mL Scinti Verse I (Fisher Scientific Co.) scintillation fluid were added, and radioactivity determined by scintillation counting. The rate of nitrate (^36 ClO3⊖) uptake in micromols per gram fresh weight of tissue per hour was calculated.
(§3) Test compounds are identified in Table I by Example number, and by the identity of substituents X, Y, Z and R in the following formula: [drawing 23]

corn root sections [2] = assay: Nitrate ion uptake by corn root sections (nitrate ion specific electrode); type: cell-based, Corn (Pioneer Hybrid 3320); conditions: for Ion Uptake (percent increase over control) NO3-: 50 ppm test compound, corn root sections
Experimental: as §1, §2
Nitrate ion uptake into corn roots was also determined by homogenizing root segments previously exposed to the nitrate absorption solution (without added ^36 ClO3⊖) with a precooled glass homogenizer in 5 mL of cold extraction medium. This medium contained 23 mM phosphate buffer pH 8.8, 5 mM cysteine, 2.5 mM EDTA, and 0.1% Neutronyx 600 (Onyx Chemical Co., Jersey City, N.J.). The resulting homogenate was centrifuged at 30,000 xg for 15 minutes, and an aliquot of the resulting supernatant solution reserved for nitrate ion determination, using an Orion nitrate ion specific electrode. The same tissue extract was used for nitrate reductase activity determination (below).
as §3

pKa = type: physicochemical; conditions: two values given
NO3 Reductase = assay: Nitrate reductase activity in extracts of treated corn root sections; type: cell-based, Corn (Pioneer Hybrid 3320); conditions: 50 ppm test compound
Experimental: as §1, §2
Nitrate ion uptake into corn roots was also determined by homogenizing root segments previously exposed to the nitrate absorption solution (without added ^36 ClO3⊖) with a precooled glass homogenizer in 5 mL of cold extraction medium. This medium contained 23 mM phosphate buffer pH 8.8, 5 mM cysteine, 2.5 mM EDTA, and 0.1% Neutronyx 600 (Onyx Chemical Co., Jersey City, N.J.). The resulting homogenate was centrifuged at 30,000 xg for 15 minutes, and an aliquot of the resulting supernatant solution reserved for nitrate ion determination, using an Orion nitrate ion specific electrode. […]
Nitrate reductase activity was determined using a modification of the procedure of Hageman and Huckles- by, Methods Enzymol. […]

corn root sections [3] = assay: Ammonium ion uptake by corn root sections (ammonium ion-specific electrode); type: cell-based, Corn (Pioneer Hybrid 3320); conditions: 50 ppm test compound
Experimental: as §1
Two centimeter root sections were cut 0.5 to 2.5 cm from the tip of 3-day-old etiolated seedling roots. Batches of 20 (for corn and cotton), or 40 (for wheat, barley and rice) root sections were tied in cheesecloth bags, leaving a 20-30 cm length of string to facilitate movement between test solutions. Root tissue was washed at 30±1° by immersing the cheesecloth bags in a well-aerated 0.2 mM K2 HPO4 /KH2 PO4 solution, pH 6.0, for 4 hours. […]
Ammonium ion uptake was determined by measuring the disappearance of ammonium ion from an uptake solution containing 1 mmol ammonium chloride, 0.2 mM calcium chloride and 5 mM MES buffer, pH 6.0, with an Orion ammonium ion-specific electrode. […]

barley root sections = assay: Nitrate ion uptake by plant root sections, barley; type: cell-based, barley (CM-721)
Experimental: as §1
(§4) Two centimeter root sections were cut 0.5 to 2.5 cm from the tip of 3-day-old etiolated seedling roots. […]
(§5) Nitrate ion uptake was measured using radioactive chlorate ion (^36 ClO3⊖) as a mimic for nitrate ion (Deane-Drummond et al., Plant Physiol. 70:50-54 (1982)). Uptake was measured by incubating 20 or 40 cheesecloth-bound washed root segments for 30 minutes in 100 mL absorption solution. […] One mL water and 10 mL Scinti Verse I (Fisher Scientific Co.) scintillation fluid were added, and radioactivity determined by scintillation counting. The rate of nitrate (^36 ClO3⊖) uptake in micromols per gram fresh weight of tissue per hour was calculated.

wheat root sections = assay: Nitrate ion uptake by plant root sections, wheat; type: cell-based, wheat (Arther)
Experimental: as §1, §4, §5

rice root sections = assay: Nitrate ion uptake by plant root sections, rice; type: cell-based, rice (m101)
Experimental: as §1, §4, §5

sorghum root sections = assay: Nitrate ion uptake by plant root sections, sorghum; type: cell-based, sorghum (SC-599-6)
Experimental: as §1, §4, §5

cotton root sections = assay: Nitrate ion uptake by plant root sections, cotton; type: cell-based, cotton (Tamcot SP-37)
Experimental: as §1, §4, §5

corn plants = assay: Field test, grain yield of nitrogen-stressed corn; type: in vivo, corn (Pioneer Hybrid 3535)
Experimental: Field tests were conducted by seeding corn (Pioneer Hybrid 3535) at a rate sufficient to obtain an excess plant population. The resulting population was thinned after emergence, 14 days after planting, to a density of about 64,000 plants per hectare, with plants about 20 cm apart in each row. The test population was subjected to severe nitrogen stress during development because only 67 kg nitrogen/hectare (60 lb/acre) were applied at planting. Nitrogen stress symptoms were apparent on lower plant leaves 32 days after emergence. Test compounds were applied to plants 34 days after emergence and 26 days prior to anthesis. Average canopy height at time of treatment was 85 cm. The treatments were applied from an acetone/water (1:3) solution with 0.2% added nonionic surfactant, using a hand-held nitrogen-pressurized sprayer. One day following treatment, an application of about 34 kg/ha (30 lb/acre) ammonium nitrate was broadcast on the ground and immediately worked into the root zone by irrigation.

Cc1ccc(COC(=O)N2CCC[C@H]2C(=O)N[C@H](CO)C(C)C)cc1 [Example 17, N-(p-Methylbenzyloxycarbonyl) -L-prolyl-L-valinol]
activation at 50 ppm (corn root sections [1]): 35%
Ion Uptake (percent increase over control) NO3- (corn root sections [2]): 39%

O=C(O)[C@@H]1COCN1C(=O)OCc1ccccc1 [3-Carbobenzoxyoxazolidine-4S-carboxylic acid]
pKa (pKa): 4.35 and 4.30

CC(C)[C@@H](CO)NC(=O)[C@@H]1[C@@H](C)OCN1C(=O)OCc1ccccc1 [Example 13, N-Carbobenzoxy-5R-methyloxazolidine-4S-carbonyl-L-valinol]
Ion Uptake (percent increase over control) 36ClO3- (corn root sections [1]): 20%

CC(C)[C@H](CO)NC(=O)[C@@H]1CCCN1C(=O)OCc1ccccc1 [Example 8, N-Carbobenzoxy-L-prolyl-D-Valinol]
activation at 50 ppm (corn root sections [1]): 12%

C[C@H]1OCN(C(=O)OCc2ccccc2)[C@@H]1C(=O)O [3-carbobenzoxy-5R-methyloxazolidine-4S-carboxylic acid]
pKa (pKa): 4.65 and 4.60

CC(C)[C@@H](CO)NC(=O)[C@H]1CCCN1C(=O)OCc1ccccc1 [Example 9, N-Carbobenzoxy-D-prolyl-L-valinol]
activation at 50 ppm (corn root sections [1]): 37%

O=C(NCCO)[C@@H]1CCCN1C(=O)OCc1ccccc1 [Example 4, N-Carbobenzoxy-L-prolyl-(β-hydroxyethyl)amide]
NO3- Reductase (percent increase over control) (NO3 Reductase): 4%
Ion Uptake (percent increase over control) 36ClO3- (corn root sections [1]): 24%
Ion Uptake (percent increase over control) NO3- (corn root sections [2]): 30%

CC(C)[C@H](CO)NC(=O)[C@H]1CCCN1C(=O)OCc1ccccc1 [Example 10, N-Carbobenzoxy-D-prolyl-D-valinol]
activation at 50 ppm (corn root sections [1]): 41%
Ion Uptake (percent increase over control) NO3- (corn root sections [2]): 36%

CC(C)[C@@H](CO)NC(=O)[C@@H]1CCCN1C(=O)OCc1ccc(F)cc1 [Example 15, N-(4-Fluorobenzyloxycarbonyl)-L-prolyl-L-valinol]
activation at 50 ppm (corn root sections [1]): 35%
Ion Uptake (percent increase over control) NO3- (corn root sections [2]): 30%

CC(C)[C@@H](CO)NC(=O)[C@@H]1COCN1C(=O)OCc1ccccc1 [Example 12, N-Carbobenzoxy-L-γ-oxaprolyl-L-valinol]
Ion Uptake (percent increase over control) 36ClO3- (corn root sections [1]): 18%

O=C(O)[C@H]1COCN1C(=O)OCc1ccccc1 [3-Carbobenzoxy oxazolidine-4R-carboxylic acid]
pKa (pKa): 3.80 and 3.90

CC(C)[C@@H](CO)NC(=O)[C@@H]1CCCN1C(=O)OCc1ccccc1 [Example 2, N-Carbobenzoxy-L-prolyl-L-valinol]
NO3- Reductase (percent increase over control) (NO3 Reductase): 7%
Ion Uptake (percent increase over control) NH4+ (corn root sections [3]): 100%
activation at 50 ppm (corn root sections [1]): 56%
Ion Uptake (percent increase over control) NO3- (corn root sections [2]): 65%
Nitrate Ion Uptake (percent increase over control) (corn root sections [2]; Corn root sections, 50 ppm): 65%
Nitrate ion uptake enhancement, in words (corn root sections [2]; corn): Significant stimulation
Optimal media concentration for stimulation of nitrate ion uptake (corn root sections [2]; immersed corn root sections, varying test concentrations): about 50 ppm
Nitrate Ion Uptake (percent increase over control) (barley root sections; Barley root sections, 50 ppm): 75%
Nitrate ion uptake enhancement, in words (barley root sections; barley): Significant stimulation
Nitrate Ion Uptake (percent increase over control) (wheat root sections; Wheat root sections, 50 ppm): 55%
Nitrate ion uptake enhancement, in words (wheat root sections; wheat): Significant stimulation
Nitrate Ion Uptake (percent increase over control) (rice root sections; Rice root sections, 50 ppm): 10%
Nitrate ion uptake enhancement, in words (rice root sections; rice root tissues): insensitive
Nitrate Ion Uptake (percent increase over control) (sorghum root sections; Sorghum root sections, 50 ppm): -5%
Nitrate ion uptake enhancement, in words (sorghum root sections; sorghum root tissues): insensitive
Nitrate Ion Uptake (percent increase over control) (cotton root sections; Cotton root sections, 50 ppm): -10%
Nitrate ion uptake enhancement, in words (cotton root sections; cotton root tissues): insensitive
Grain yield (average) (corn plants; second round of field tests, 0.035, 0.07 and 0.14 kg/ha, controls average 321): 348 bushels/ha
Increase in grain yield (corn plants; second round of field tests, application rates 0.035, 0.07 and 0.14 kg/ha, all three): 8-10%
Grain yield (corn plants; sprayed with 500 ppm (0.14 kg/ha), field grown corn, control 232): 248 bushels/ha
Increase in grain yield (corn plants; sprayed with 500 ppm (0.14 kg/ha), field grown corn, p=0.05, vs. control): 6.3%

CC(C)[C@@H](CO)NC(=O)[C@@H]1CCCN1C(=O)OCc1ccc(Cl)cc1 [Example 16, N-(p-Chlorobenzyloxycarbonyl) -L-prolyl-L-valinol]
activation at 50 ppm (corn root sections [1]): 14%

CC[C@@H](CO)NC(=O)[C@@H]1CCCN1C(=O)OCc1ccccc1 [Example 6, N-Carbobenzoxy-L-prolyl-L-homoalaninol]
activation at 50 ppm (corn root sections [1]): 20%
Ion Uptake (percent increase over control) NO3- (corn root sections [2]): 24%

C[C@@H](CO)NC(=O)[C@@H]1CCCN1C(=O)OCc1ccccc1 [Example 5, N-Carbobenzoxy-L-prolyl-L-alaninol]
activation at 50 ppm (corn root sections [1]): 20%

CC[C@H](CO)NC(=O)[C@@H]1CCCN1C(=O)OCc1ccccc1 [Example 7, N-Carbobenzoxy-L-prolyl-D-homoalaninol]
activation at 50 ppm (corn root sections [1]): 40%
Ion Uptake (percent increase over control) NO3- (corn root sections [2]): 41%
